Source: patent US11446300B2 (Alexion Pharmaceuticals, Inc., priority 2015, dated 2022)
Read-outs that look alike come from different tables or passages of the source.

Experiments:
[1] = tested on: CLL cells from ibrutinib-relapsed patients with BTK mutations (BTK^C481S, BTKT^316A); experiment: BrdU cell proliferation assay, combined stimulation; assay type: cell-based, human; details: three ibrutinib-relapsed patients
DHL6 = experiment: Combination synergy, Cell Titer Glo, 72 hours; assay type: cell-based; details: DHL6, 72 hours
Procedure: (§1) Synergistic anti-tumor activity in DLBCL cell lines was determined using the Cell Titer Glo assay. Briefly, 5,000 cells were plated in 96 well plates in complete tissue culture media. […] Cells were incubated with or without drug for 72 hours in a 37° C. tissue culture incubator prior to evaluation by CellTiter Glo as per the manufacturer protocol (Promega). Synergy was evaluated by calculating combination index score, as described elsewhere (Jacquement et al, Molecular Cancer 2012) following IC50 determination using Prism software. The compounds are commercially available or are made according to synthetic methods known to those skilled in the art.
as §1, with “calculating a” for “calculating”

VAL = experiment: Combination synergy, Cell Titer Glo, 72 hours; assay type: cell-based; details: VAL, 72 hours
Procedure: as §1
as §1, with “calculating a” for “calculating”

DHL10 = experiment: Combination synergy, Cell Titer Glo, 72 hours; assay type: cell-based; details: DHL10, 72 hours
Procedure: as §1
as §1, with “calculating a” for “calculating”

DHL4 (SU-DHL4) = experiment: Combination synergy, Cell Titer Glo, 72 hours; assay type: cell-based; details: Homo sapiens
Procedure: as §1
as §1, with “calculating a” for “calculating”

Lyl (OCI-Lyl) = experiment: Combination synergy, Cell Titer Glo, 72 hours; assay type: cell-based
Procedure: as §1
as §1, with “calculating a” for “calculating”

[2] = Phase I study, pharmacokinetics following oral dosing; assay type: in vivo, human; details: for Cmax / AUC / half-life / steady-state Cmin to Cmax range: human, plasma
Procedure: A first-in-human study of cerdulatinib in patients with relapsed/refractory CLL/SLL or B-cell non-Hodgkin's lymphoma (NHL) was carried out. […] Patients received a single dose on day 1 for 72 hour PK evaluation. Continuous dosing was initiated on day 4. […] Median age was 67 years (range 23-85) and median prior therapies (tx) was 3 (range 1-8).
(§2) Pharmacokinetics (“PK”), pharmacodynamics (“PD”), and safety were monitored. Response was assessed by standard criteria. The level of inhibition of SYK and JAK was determined using a variety of whole blood assays measuring signaling via receptors for the B-cell antigen, IL2, IL4, IL6, and GM-CSF. Serum markers of tumor burden, including CCL3, CCL4, and other markers of inflammation (02M and CRP), were also being measured.

IL4 signaling = experiment: Phase I study, whole blood assay of IL4 receptor signaling; assay type: in vivo, human; details: extrapolated from PK/PD fit of all data
Procedure: as §2

[3] = single agents and cerdulatinib:ABT-199 ratios
[4] = single agents and cerdulatinib:ibrutinib ratios
[5] = 15 mg/twice daily oral, Table 2, n=28
[6] = 15 mg/twice daily, Table 3, n=43
[7] = 20 mg/twice daily oral, Table 2, n=28
[8] = 20 mg/twice daily, Table 3, n=43
[9] = 45 mg/day oral, PK outlier removed, Table 2, n=28
[10] = 45 mg/twice daily, Table 3, n=43
[11] = 100 mg/day (one patient), Table 3

For CCS(=O)(=O)N1CCN(c2ccc(Nc3ncc(C(N)=O)c(NC4CC4)n3)cc2)CC1 [Cerdulatinib, 4-(cyclopropylamino)-2-(4-(4-(ethylsulfonyl)piperazin-1-yl)phenylamino)pyrimidine-5-carboxamide], the “BrdU^+ cell populations” value [1] was “almost completely blocked”, the IC50 (DHL6; [3]) was 0.62 µM and the IC50 (DHL6; [4]) was 0.56 µM. For the same compound, the IC50 (VAL; [3]) was 1.3 µM, the IC50 (VAL; [4]) was 1.33 µM and the IC50 (DHL10; [3]) was 0.3 µM. The IC50 (DHL10; [4]) was 0.22 µM, the IC50 (DHL4 (SU-DHL4); SU-DHL-4, 72 h, DHL4, 72 hours, single agents and cerdulatinib:ABT-199 ratios, read-out: IC50) was 1.49 µM and the IC50 (DHL4 (SU-DHL4); SU-DHL-4, 72 h, DHL4, 72 hours, single agents and cerdulatinib:ibrutinib ratios, read-out: IC50) was 1.7 µM. The IC50 (DHL4 (SU-DHL4); SU-DHL-4, SU-DHL4 cell line, read-out: IC50 value) was 1.49 µM, the IC50 (Lyl (OCI-Lyl)) was 4.3 µM and the “SS Cave” value ([2]; 15 mg/day oral, Table 2, n=28) was 190 nM. The “SS Cave” value ([2]; 15 mg/day, Table 3, n=43) was 190 nM, the “SS Cmin” value ([2]; 15 mg/day, Table 3, n=43) was 120 nM and the “SS Cave” value [2, 5] was 390 nM. The “SS Cave” value [2, 6] was 390 nM, the “SS Cmin” value [2, 6] was 290 nM and the “SS Cave” value [2, 7] was 520 nM. For the same compound, the “SS Cave” value [2, 8] was 520 nM, the “SS Cmin” value [2, 8] was 380 nM and the “SS Cave” value ([2]; 30 mg/day oral, Table 2, n=28) was 310 nM. For the same compound, the “SS Cmin” value ([2]; 30 mg/day oral, Table 2, n=28) was 210 nM, the “SS Cave” value ([2]; 30 mg/day, Table 3, n=43) was 310 nM and the “SS Cmin” value ([2]; 30 mg/day, Table 3, n=43) was 210 nM. For the same compound, the “SS Cave” value ([2]; 40 mg/day oral, Table 2, n=28) was 1140 nM, the “SS Cmin” value ([2]; 40 mg/day oral, Table 2, n=28) was 870 nM and the “SS Cave” value ([2]; 40 mg/day, Table 3, n=43) was 1140 nM. The “SS Cmin” value ([2]; 40 mg/day, Table 3, n=43) was 870 nM, the “SS Cave” value [2, 9] was 1110 nM and the “SS Cmin” value [2, 9] was 820 nM. For the same compound, the “SS Cave” value ([2]; 45 mg/day, Table 3, n=43) was 1110 nM, the “SS Cmin” value ([2]; 45 mg/day, Table 3, n=43) was 820 nM and the “SS Cave” value [2, 10] was 1500 nM. For the same compound, the “SS Cmin” value [2, 10] was 1480 nM, the “SS Cave” value ([2]; 50 mg/day oral, Table 2, n=28) was 1310 nM and the “SS Cave” value ([2]; 50 mg/day, Table 3, n=43) was 990 nM. For the same compound, the “SS Cmin” value ([2]; 50 mg/day, Table 3, n=43) was 790 nM, the “SS Cave” value ([2]; 65 mg/day, Table 3, n=43) was 1010 nM and the “SS Cmin” value ([2]; 65 mg/day, Table 3, n=43) was 760 nM. For the same compound, the “SS Cave” value [2, 11] was 680 nM, the “SS Cmin” value [2, 11] was 370 nM and the Cmax ([2]; oral, 15 mg/day, Table 3, n=43, read-out: SS Cmax) was 380 nM. The Cmax ([2]; oral, 15 mg/twice daily, Table 3, n=43, read-out: SS Cmax) was 530 nM, the Cmax ([2]; oral, 20 mg/twice daily, Table 3, n=43, read-out: SS Cmax) was 890 nM and the Cmax ([2]; oral, 30 mg/day, Table 3, n=43, read-out: SS Cmax) was 630 nM. The Cmax ([2]; oral, 40 mg/day, Table 3, n=43, read-out: SS Cmax) was 1480 nM, the Cmax ([2]; oral, 45 mg, 45 mg BID, n=20, read-out: Cmax) was 2160 ± 500 nM and the Cmax ([2]; oral, 45 mg/day, Table 3, n=43, read-out: SS Cmax) was 1690 nM. The Cmax ([2]; oral, 45 mg/day, outlier removed from the group, read-out: steady state Cmax of PK outlier) was 150 nM, the Cmax ([2]; oral, 45 mg/twice daily, Table 3, n=43, read-out: SS Cmax) was 1800 nM and the Cmax ([2]; oral, 50 mg/day, Table 3, n=43, read-out: SS Cmax) was 1570 nM. The Cmax ([2]; oral, 65 mg/day, Table 3, n=43, read-out: SS Cmax) was 1670 nM, the Cmax ([2]; oral, 65 mg, read-out: steady state Cmax) was about 2000 nM and the Cmax ([2]; oral, 100 mg/day, 100 mg/day (one patient), Table 3, read-out: SS Cmax) was 1110 nM. It also gave a Cmax ([2]; oral, 40-100 mg QD doses, read-out: average steady state (SS) Cmax) of 1630 ± 560 nM, an AUC ([2]; oral, 15 mg/day, Table 3, n=43) of 4.5 ± 0.8 µM·h and a half-life ([2]; oral, 15 mg/day, Table 3, n=43, read-out: T1/2 (converted)) of 11.5 h. The AUC ([2]; oral, 15 mg/twice daily, Table 3, n=43) was 4.7 ± 1.3 µM·h, the half-life ([2]; oral, 15 mg/twice daily, Table 3, n=43, read-out: T1/2 (converted)) was 11.2 h and the AUC ([2]; oral, 20 mg/twice daily, Table 3, n=43) was 6.2 ± 1 µM·h. It also gave a half-life ([2]; oral, 20 mg/twice daily, Table 3, n=43, read-out: T1/2 (converted)) of 8.4 h, an AUC ([2]; oral, 30 mg/day, Table 3, n=43) of 7.5 ± 3 µM·h and a half-life ([2]; oral, 30 mg/day, Table 3, n=43, read-out: T1/2 (converted)) of 12.3 h. It also gave an AUC ([2]; oral, 40 mg/day, Table 3, n=43) of 27.3 ± 0.8 µM·h, a half-life ([2]; oral, 40 mg/day, Table 3, n=43, read-out: T1/2 (converted)) of 32.8 h and an AUC ([2]; oral, 45 mg BID, n=20) of 33.3 ± 15.9 µM·h. It also gave a half-life ([2]; oral, 45 mg BID, n=20, read-out: T1/2 (converted)) of 27.5 ± 22.5 h, an AUC ([2]; oral, 45 mg/day, Table 3, n=43) of 26.6 ± 13.9 µM·h and a half-life ([2]; oral, 45 mg/day, Table 3, n=43, read-out: T1/2 (converted)) of 22.3 h. It also gave an AUC ([2]; oral, 50 mg/day, Table 3, n=43) of 23.8 ± 14.9 µM·h, a half-life ([2]; oral, 50 mg/day, Table 3, n=43, read-out: T1/2 (converted)) of 39 h and an AUC ([2]; oral, 65 mg/day, Table 3, n=43) of 24.2 ± 0.7 µM·h. It also gave a half-life ([2]; oral, 65 mg/day, Table 3, n=43, read-out: T1/2 (converted)) of 25.1 h, an AUC ([2]; oral, 100 mg/day (one patient), Table 3) of 16.3 µM·h and a half-life ([2]; oral, 100 mg/day (one patient), Table 3, read-out: T1/2 (converted)) of 14.4 h. The half-life ([2]; oral, once daily dosing, read-out: half-life) was 12 to 16 h, the Cmax ([2]; po, 15 mg twice daily, 15 mg/twice daily oral, Table 2, n=28, read-out: SS Cmax) was 530 nM and the Cmax ([2]; po, 15 mg/day, 15 mg/day oral, Table 2, n=28, read-out: SS Cmax) was 380 nM. The Cmax ([2]; po, 20 mg twice daily, 20 mg/twice daily oral, Table 2, n=28, read-out: SS Cmax) was 890 nM, the Cmax ([2]; po, 30 mg/day, 30 mg/day oral, Table 2, n=28, read-out: SS Cmax) was 630 nM and the Cmax ([2]; po, 40 mg/day, 40 mg/day oral, Table 2, n=28, read-out: SS Cmax) was 1480 nM. The Cmax ([2]; po, 45 mg/day, 45 mg/day oral, PK outlier removed, Table 2, n=28, read-out: SS Cmax) was 1690 nM, the Cmax ([2]; po, 50 mg/day, 50 mg/day oral, Table 2, n=28, read-out: SS Cmax) was 2070 nM and the steady-state Cmin to Cmax range ([2]; po, 65 mg, Patient 1, 65 mg PO QD) was 730 to 1740 nM. The steady-state Cmin to Cmax range ([2]; po, Patient 2, 45 mg PO QD reduced to 30 mg) was 250 to 630 nM, the AUC ([2]; 15 mg/day oral, Table 2, n=28) was 4.5 µM·h and the half-life ([2]; 15 mg/day oral, Table 2, n=28, read-out: T1/2 (converted)) was 11.5 h. The AUC [2, 5] was 4.7 µM·h, the half-life ([2]; 15 mg/twice daily oral, Table 2, n=28, read-out: T1/2 (converted)) was 11.2 h and the AUC [2, 7] was 6.2 µM·h. For the same compound, the half-life ([2]; 20 mg/twice daily oral, Table 2, n=28, read-out: T1/2 (converted)) was 8.4 h, the AUC ([2]; 30 mg/day oral, Table 2, n=28) was 7.5 µM·h and the half-life ([2]; 30 mg/day oral, Table 2, n=28, read-out: T1/2 (converted)) was 12.3 h. For the same compound, the AUC ([2]; 40 mg/day oral, Table 2, n=28) was 27.3 µM·h, the half-life ([2]; 40 mg/day oral, Table 2, n=28, read-out: T1/2 (converted)) was 32.8 h and the AUC [2, 9] was 26.6 µM·h. The half-life ([2]; 45 mg/day oral, PK outlier removed, Table 2, n=28, read-out: T1/2 (converted)) was 22.3 h, the AUC ([2]; 50 mg/day oral, Table 2, n=28) was 31.4 µM·h and the “concentrations achievable in patients” value ([2]; in vivo) was about 2200 nM. For the same compound, the inhibition at 15 mg (IL4 signaling; Homo sapiens, 15 mg/day, read-out: % Inh. IL4 (Cmin − Cmax)) was 16 to 42%, the inhibition at 30 mg (IL4 signaling; Homo sapiens, 30 mg/day, read-out: % Inh. IL4 (Cmin − Cmax)) was 26 to 57% and the inhibition at 100 mg (IL4 signaling; Homo sapiens, 100 mg/day (one patient), read-out: % Inh. IL4 (Cmin − Cmax)) was 41 to 72%. The “% Inh. IL4 (Cmin − Cmax)” value (IL4 signaling; printed on the 40 mg/day line (45-65 mg/day lines empty)) was 63 − 78%.
